Test results published in patent US5849915A (priority 1996, dated 1998).

Legend:
[1] = parameters: species or system mice; settings: mouse, in vivo, sc, 30 min
[2] = parameters: species or system mice; settings: mouse, in vivo, sc
[3] = parameters: species or system mice; settings: mouse, in vivo

SMILES | ED50 (95% confidence limits) in the hot plate [1] | ED50 (95% confidence limits) in the acetic acid writhing test [2] | anti-Mor effect (in words) [3] | AD50 (95% confidence limits), dosage required to inhibit Mor analgesia by 50% ([3]; sc)
CN1CC[C@]23c4c5ccc(O)c4O[C@H]2[C@@H](O)C=C[C@H]3[C@H]1C5 [Morphine] | 5.81 mg/kg | – | – | –
CO[C@]12CC[C@@]3(C[C@@H]1[C@](C)(O)C(C)(C)C)[C@H]1Cc4ccc(O)c5c4[C@@]3(CCN1CC1CC1)[C@H]2O5 [Buprenorphine] | – | 0.00693 mg/kg | antagonised Mor analgesia | 1.33 mg/kg
